Values of other authors, collected in patent US12616202B2, “Agricultural formulations, uses thereof and processes for preparation thereof” (priority 2018, dated 2026).

COCC(=O)N(c1c(C)cccc1C)C(C)C(=O)OC (stereo not shown) [metalaxyl, Metalaxyl]
water solubility: 8,400 parts per million
